The nature of series [1]: pKa determination using 13C NMR titration.
Description: (§7) In this way, a non-linear plot of the difference between NMR resonance frequencies for a compound of interest and those for a standard, such as 3-nitrophenol, can be used to determine the ratio (R) of the acid dissociation constants between these two materials.
(§8) pK determination using 13C NMR. All titrations were carried out on the Bruker AVANCE II 600 MHz NMR
(§9) spectrometer. The samples prepared for each titration contained 5 µL of 1,4-dioxane as an internal standard, an equal mol
(§10) amount of inhibitor and 3-nitrophenol or 3.4-dinitrophenol (depending on the availability of each compound) in 500 µL of
(§11) Each sample was made basic with 25-70 µL of 2M NaOH, and prior to
(§12) titration, it was ensured that there was no change in chemical shift with further addition of base in 5 µL increments, in
(§13) order to accurately establish the δd for each compound. The basic sample was then titrated with 10 µL of 0.5 M (15f-15h,
(§14) titration was reached. The point where the chemical shift stopped changing was the recorded δp for each compound. The
(§15) relative pKa (∆pKa) was then determined by non-linear fitting of data to Equation S1, which provides the value of R (R =
(§16) K x/K r) and describes the relationship between the difference (∆) in chemical shifts (δ) between each compound of
(§17) unknown pKa (x) and the reference compound with known pKa (r). δp and δd represent the chemical shifts of the protonated
(§18) and de-protonated species of each compound, where ∆ expresses the difference between the de-protonated species (δ x –
(§19) δd ), ∆ represents the difference between the deprotonated and protonated species of x (δd – δp ), and ∆ for that of the
(§20) reference compound (∆r = δ r – δ r). The fractional protonation of the reference compound is represented by n and is equal
We observed the 2′-carbon of the
(§21) aminothiazoline system and the C-1 carbon of 3-nitrophenol since these are most proximal to the ionizable center. Fitting
(§22) of the resulting data to Equation S1 (Figure 5 (ThiamEt-G), Supplemental Figure S7) enabled us to obtain values of R for
(§23) each compound and, by comparison to the reference compound, absolute pKa values (Table 1). The observed pKa values
A short description of a further series: physchem. As to conditions: aqueous solution (H2O/D2O) with reference phenol.
The target in series [2] is T1, human hexosaminidase B (hHexB) (Homo sapiens, UniProt P07686).
T1 construct: Micheal Tropak, Hospital for Sick Children, Toronto (gift, not a vendor)
T1 sequence (P07686 122-556): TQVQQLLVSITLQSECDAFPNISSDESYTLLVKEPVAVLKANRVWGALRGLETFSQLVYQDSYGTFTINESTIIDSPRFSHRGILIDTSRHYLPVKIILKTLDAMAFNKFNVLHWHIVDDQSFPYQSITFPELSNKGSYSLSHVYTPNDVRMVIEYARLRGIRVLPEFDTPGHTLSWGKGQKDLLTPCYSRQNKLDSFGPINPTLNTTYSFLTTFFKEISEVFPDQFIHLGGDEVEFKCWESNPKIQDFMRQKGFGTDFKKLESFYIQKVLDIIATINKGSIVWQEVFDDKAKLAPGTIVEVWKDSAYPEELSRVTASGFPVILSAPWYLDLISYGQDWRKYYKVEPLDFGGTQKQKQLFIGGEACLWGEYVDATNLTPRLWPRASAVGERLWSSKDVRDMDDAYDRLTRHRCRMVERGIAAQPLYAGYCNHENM
In words: Inhibition of human hexosaminidase B (4-MUGlcNAc substrate). It is filed as biochemical. As to conditions: for Ki: pH 4.25, 37°C; for (hHexB/hOGA) selectivity ratio: Ki hHexB / Ki hOGA, favored selectivity for hOGA. The text has this:
We next set out to assess the selectivity of this series of inhibitors for hOGA over the lysosomal β-hexosaminidases, which are comprised of combinations of α and β subunits that are products of the highly homologous HEXA and HEXB genes. […]
(§1) Biological evaluation: Gene expression and protein purification. hOGA was expressed and purified according to the previously described procedure by Macauley et al.[5] hOGA was dialyzed twice against PBS buffer after purification and its concentration determined using the Nanodrop2000. Human β-hexosaminidase was obtained from Micheal Tropak at the Hospital for Sick Children in Toronto, without further purification.
(§2) Kinetic analysis of hOGA. […]
(§3) in PBS pH 7.4 buffer (0.03% BSA) in triplicate at 37°C for 20 minutes. A continuous assay procedure was performed in which the reactions were initiated by the addition of 4-MUGlcNAc substrate (50 µL or 100 µL via a multi-channel […]
(§4) The excitation and emission were 350
(§5) The amount of fluorogenic substrate liberated was quantitatively assessed by using a standard curve for 4-methylumbelliferone under identical buffer conditions. A total of 6-8 inhibitor concentrations were tested, […]
(§6) The hOGA concentrations in the assays ranged from 0.8 nM to 20 nM, depending on whether the Ki being determined was through classic Michaelis-Menten methods or the Morrison Ki fit. For full Ki […]
For the Morrison Ki analyses, only one substrate concentration was used (at the Km) since the method of inhibition was already known from analysis using the Line-weaver Burke plots. […]
Kinetic analysis of β-hexosaminidase. All assays were carried out in 96 well plates (Thermoscientific, FloroNunc, lot […]
reactions were triggered by addition of substrate (20 µL or 15 µL) in a total volume of 45 or 40 µL. Reactions were […]
detect the fluorescent signal. […]

The target of the next series is T2, human OGA (hOGA) (Homo sapiens, UniProt O60502).
T2 construct: made in house
T2 sequence (O60502 1-916): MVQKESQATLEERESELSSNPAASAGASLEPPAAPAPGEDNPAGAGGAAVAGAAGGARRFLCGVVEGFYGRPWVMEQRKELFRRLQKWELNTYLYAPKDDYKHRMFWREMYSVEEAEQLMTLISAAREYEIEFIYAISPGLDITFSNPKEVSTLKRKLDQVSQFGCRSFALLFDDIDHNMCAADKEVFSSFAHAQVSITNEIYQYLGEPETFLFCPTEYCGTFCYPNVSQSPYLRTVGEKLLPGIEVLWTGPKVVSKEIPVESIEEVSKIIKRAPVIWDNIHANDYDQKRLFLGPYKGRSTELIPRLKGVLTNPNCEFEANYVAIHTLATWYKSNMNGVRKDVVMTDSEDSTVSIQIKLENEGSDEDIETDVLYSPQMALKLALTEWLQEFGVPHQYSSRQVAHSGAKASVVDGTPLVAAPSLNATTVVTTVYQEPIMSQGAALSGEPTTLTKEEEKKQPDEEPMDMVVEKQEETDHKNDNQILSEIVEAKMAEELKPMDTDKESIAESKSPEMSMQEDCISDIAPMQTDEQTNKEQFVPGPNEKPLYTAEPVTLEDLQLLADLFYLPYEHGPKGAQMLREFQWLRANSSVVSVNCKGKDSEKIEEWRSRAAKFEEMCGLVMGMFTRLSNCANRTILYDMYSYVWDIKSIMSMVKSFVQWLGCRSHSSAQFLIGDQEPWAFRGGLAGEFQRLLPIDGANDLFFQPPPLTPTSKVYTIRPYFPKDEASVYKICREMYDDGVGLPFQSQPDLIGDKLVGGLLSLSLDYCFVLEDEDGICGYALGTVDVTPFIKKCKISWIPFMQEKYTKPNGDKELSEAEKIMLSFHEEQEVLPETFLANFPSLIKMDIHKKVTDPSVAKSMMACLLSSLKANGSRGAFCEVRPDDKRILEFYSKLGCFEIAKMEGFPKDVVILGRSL
The series is described as follows: Inhibition of hOGA-catalysed 4-MUGlcNAc hydrolysis (Ki determination). It counts as biochemical.
Description: Refinement of the Morrison approach by Copeland enables defining the Ki value for an inhibitor through the use of relative rates using a quadratic equation (eqn (1)).[46] This approach depends on knowing the initial free enzyme and inhibitor concentrations without the assumption that the free inhibitor concentration is equal to the total inhibitor concentration.1 [drawing 1]
Further, Ki values can be accurately determined over a wide range of enzyme concentrations using this method,[47] which enabled us to use hOGA concentrations that permit accurate initial rate determinations. […]
as §1, §2, §3, §4, §5, §6
For the Morrison Ki analyses, only one substrate concentration was used (at the Km) since the method of inhibition was already known from analysis using the Line-weaver Burke plots.
Kinetic analysis of substrates 18a-e were performed in triplicate using pH 7.4 PBS buffer (0.03% BSA) containing 2.5% DMF, with varying enzyme concentrations. […]

Another series addresses T3, hOGA (Homo sapiens, UniProt O60502).
T3 construct: made in house
T3 sequence (O60502 1-916): T2 sequence (O60502 1-916)
Particulars: cited from earlier work.

Series [3] concerns the target human lysosomal β-hexosaminidase (HEX). Particulars: cited from earlier work.
The conditions of series [4]: reference compound with known pKa; cited from earlier work.
The mark [5] stands for this setting: 3-nitrophenol as reference compound.
[6] abbreviates: Dixon plot analysis (approximate Ki).
[7] abbreviates: Michaelis–Menten inhibition analysis, 4-MUGlcNAc, PBS pH 7.4, 37°C, read-out: hOGA Ki.
[8] abbreviates: Morrison Ki fit, 4-MUGlcNAc, PBS pH 7.4, 37°C, read-out: hOGA Ki.
[9] abbreviates: 3,4-dinitrophenol as reference compound.

Read-outs that look alike come from different tables or passages of the source.

Description for physchem: as §7, §8, §9, §10, §11, §12, §13, §14, §15, §16, §17, §18, §19, §20
We observed the 2′-carbon of the
as §21, §22, §23

The pKa is the negative logarithm of the acid dissociation constant. Regarding `OC[C@H]1O[C@@H]2SC(NCC(F)F)=N[C@@H]2[C@@H](O)[C@@H]1O` [15g], the “R (Kax/Kar)” value in series [1] (setting [5]) is 0.0058 ± 0.0002. In addition, in series [1], the “Fraction protonated at pH 7.4” value turned out to be 0.06. Besides, in “physchem”, the pKa stood at 6.18. In addition, the Ki is 150 ± 50 µM in series [2] (setting [6]) and 0.06 ± 0.01 µM at human OGA (hOGA) (setting [7]). Further, the “(hHexB/hOGA) selectivity ratio” value in series [2] came to 2500.
Turning to `C=CC=CC(=O)N[C@H]1c2nc(CCc3ccccc3)cn2[C@H](CO)[C@@H](O)[C@@H]1O` [GlcNAcstatin G], on hOGA, the Ki was 0.0041 µM. Besides, the “Ki(HEX)/Ki(hOGA)” value in series [3] is 900 000.
With `NC1=N[C@@H]2[C@@H](O)[C@H](O)[C@@H](CO)O[C@@H]2S1` [11a], the “(hHexB/hOGA) selectivity ratio” value in series [2] stood at 1100. Further, the Ki is 5 ± 0.6 µM in series [2] (Michaelis–Menten inhibition analysis (full Ki)) and 0.0047 ± 0.0003 µM on human OGA (hOGA) (setting [8]).
Consider `O=[N+]([O-])c1cccc(O)c1` [3-nitrophenol], for which the pKa in series [4] is on record as 8.42.
Regarding `OC[C@H]1O[C@@H]2SC(NCCF)=N[C@@H]2[C@@H](O)[C@@H]1O` [15f], in series [1] (setting [5]), the “R (Kax/Kar)” value was determined as 0.0316 ± 0.0063. In series [1], the “Fraction protonated at pH 7.4” value was 0.25. For the same compound, the pKa in “physchem” came out at 6.92. Moreover, the Ki in series [2] (setting [6]) stood at 180 ± 44 µM; on human OGA (hOGA) it was 0.015 ± 0.005 µM. Also, in series [2], the “(hHexB/hOGA) selectivity ratio” value is on record as 12 000.
As for `CCCCC(=O)N[C@H]1c2nc(CCc3ccccc3)cn2[C@H](CO)[C@@H](O)[C@@H]1O` [GlcNAcstatin H], in series [3], the “Ki(HEX)/Ki(hOGA)” value is 35 000.
Consider `CCCNC1=N[C@@H]2[C@@H](O)[C@H](O)[C@@H](CO)O[C@@H]2S1` [15d], for which the Ki came out at 3700 ± 670 µM in series [2] (setting [6]) and 0.002 ± 0.0002 µM at human OGA (hOGA) (setting [8]). The “(hHexB/hOGA) selectivity ratio” value in series [2] is listed as 1 850 000.
Regarding `CCCCNC1=N[C@@H]2[C@@H](O)[C@H](O)[C@@H](CO)O[C@@H]2S1` [15e], the Ki was 4800 ± 763 µM in series [2] (setting [6]) and 0.35 ± 0.09 µM at human OGA (hOGA) (setting [7]). Also, the “(hHexB/hOGA) selectivity ratio” value in series [2] is given as 13 700.
Turning to `CCCC1=N[C@@H]2[C@@H](O)[C@H](O)[C@@H](CO)O[C@@H]2S1` [NButGT, reference compound], the “Ki(HEX)/Ki(hOGA)” value in series [3] (selectivity for hOGA over lysosomal β-hexosaminidases) is reported as 1,500. The “R (Kax/Kar)” value in series [1] (setting [9]) is reported as 5.47 ± 3.28. Further, the pKa in “physchem” was determined as 4.65.
`CCNC1=N[C@@H]2[C@@H](O)[C@H](O)[C@@H](CO)O[C@@H]2S1` [15c, 1,2-dideoxy-2′-ethylamino-α-D-glucopyranoso-[2,1-d]-Δ2′-thiazoline]: in series [3] (read-out: hHexB Ki), the Ki is 740 ± 60 µM. Further, the “R (Kax/Kar)” value in series [1] (setting [5]) amounted to 0.1823 ± 0.0042. Further, the “Fraction protonated at pH 7.4” value in series [1] was found to be 0.66. The compound also displayed a pKa in “physchem” of 7.68.
For `C=CCNC1=N[C@@H]2[C@@H](O)[C@H](O)[C@@H](CO)O[C@@H]2S1` [11b], the Ki in series [2] (setting [6]) stood at 2850 ± 570 µM; on human OGA (hOGA) (Michaelis-Menten analysis, hOGA 0.8 nM (Figure S2A), read-out: hOGA Ki) it was 0.0023 ± 0.0003 µM; on human OGA (hOGA) (setting [8]), 0.0032 ± 0.0004 µM; on human OGA (hOGA) (Morrison approach, hOGA 10 nM, substrate 60 µM (Figure S2B), read-out: hOGA Ki), 0.0032 ± 0.0004 µM; at human OGA (hOGA) (graphical determination, Km app against inhibitor concentration (Figure S2A inset), read-out: hOGA Ki) it was 0.0047 µM. For the same compound, the “(hHexB/hOGA) selectivity ratio” value in series [2] is on record as 950 000. For the same compound, the “mode of inhibition of hOGA” value on human OGA (hOGA) (Lineweaver–Burk / Michaelis-Menten analysis) is given as “competitive inhibition”.
Take `CN(C)C1=N[C@@H]2[C@@H](O)[C@H](O)[C@@H](CO)O[C@@H]2S1` [15b]: the Ki in series [2] (setting [6]) was determined as 13 ± 3.8 µM.
In the case of `CC(C)C(=O)N[C@H]1c2nc(CCc3ccccc3)cn2[C@H](CO)[C@@H](O)[C@@H]1O` [GlcNAcstatin C], at hOGA, the Ki is 0.0032 µM. Also, the “Ki(HEX)/Ki(hOGA)” value in series [3] is reported as 190.
For `OC[C@H]1O[C@@H]2SC(NCC(F)(F)F)=N[C@@H]2[C@@H](O)[C@@H]1O` [15h], the “R (Kax/Kar)” value in series [1] (setting [9]) amounted to 1.213 ± 0.049. Further, the “Fraction protonated at pH 7.4” value in series [1] amounted to 0.01. This compound registered a pKa in “physchem” of 5.33. The Ki is 4200 ± 1530 µM in series [2] (setting [6]) and 1 ± 0.2 µM on human OGA (hOGA) (setting [7]). Also, the “(hHexB/hOGA) selectivity ratio” value in series [2] is given as 4200.
Regarding `CC(=O)N[C@H]1CN2CC[C@H](O)[C@@H]2[C@@H](O)[C@@H]1O` [6-Ac-Cas, 6-acetamido-6-deoxy-castanospermine], in series [3] (in words), the “selectivity for hOGA over lysosomal β-hexosaminidases” value is reported as “non-selective”.

Source of the values: paper PMC6008586, “Analysis of transition state mimicry by tight binding aminothiazoline inhibitors provides insight into catalysis by human O-GlcNAcase” (Chemical Science, 2016).
